Test results as given in the NIST ThermoML archive (doi:10.1016/j.tca.2018.07.026).
“And” between values parts separate entries of the source, which are not always exact repeats. Identical values can stand only once.

Experiments:
[1] = for vapor or sublimation pressure: Liquid, Transpiration method
[2] = Molar enthalpy of transition or fusion; details: Crystal; DSC
[3] = molar heat capacity at constant pressure; details: 101.33 kPa, Crystal, DSC

N#Cc1cccc2ccccc12 [1-cyanonaphthalene]
Details | molar heat capacity at constant pressure | vapor or sublimation pressure [kPa]
[1], 317.4 K | – | 0.00232
[1], 321.3 K | – | 0.00324
[1], 323.2 K | – | 0.00381
[1], 326.3 K | – | 0.00461
[1], 328.2 K | – | 0.00556
[1], 331.2 K | – | 0.00702
[1], 333.3 K | – | 0.00785
[1], 335.2 K | – | 0.00943
[1], 338.2 K | – | 0.0116
[1], 340.2 K | – | 0.01358
[1], 343.2 K | – | 0.01719
[1], 345.1 K | – | 0.01921
[1], 348.1 K | – | 0.02329
[1], 351.1 K | – | 0.02893
[1], 353.2 K | – | 0.03229
[3], 268.9 K | 144.7 J/K/mol and 156.8 J/K/mol | –
[3], 269.3 K | 148.8 J/K/mol and 159.1 J/K/mol | –
[3], 269.7 K | 152.4 J/K/mol and 161.1 J/K/mol | –
[3], 270.1 K | 155.6 J/K/mol and 162.6 J/K/mol | –
[3], 270.5 K | 158.2 J/K/mol and 164.1 J/K/mol | –
[3], 270.9 K | 160.6 J/K/mol and 165.4 J/K/mol | –
[3], 271.3 K | 162.5 J/K/mol and 166.5 J/K/mol | –
[3], 271.7 K | 164.3 J/K/mol and 167.5 J/K/mol | –
[3], 272.1 K | 168.4 J/K/mol and 165.9 J/K/mol | –
[3], 272.5 K | 169.2 J/K/mol and 167.2 J/K/mol | –
[3], 272.9 K | 168.6 J/K/mol and 170 J/K/mol | –
[3], 273.3 K | 169.6 J/K/mol and 170.8 J/K/mol | –
[3], 273.6 K | 170.5 J/K/mol and 171.4 J/K/mol | –
[3], 274 K | 171.5 J/K/mol and 172.1 J/K/mol | –
[3], 274.4 K | 172.1 J/K/mol and 172.7 J/K/mol | –
[3], 274.8 K | 172.9 J/K/mol and 173.4 J/K/mol | –
[3], 275.2 K | 173.5 J/K/mol and 173.9 J/K/mol | –
[3], 275.5 K | 174.2 J/K/mol and 174.4 J/K/mol | –
[3], 275.9 K | 174.6 J/K/mol and 174.9 J/K/mol | –
[3], 276.3 K | 175.1 J/K/mol and 175.4 J/K/mol | –
[3], 276.7 K | 175.5 J/K/mol and 175.6 J/K/mol | –
[3], 277 K | 175.9 J/K/mol | –
[3], 277.1 K | 175.7 J/K/mol | –
[3], 277.4 K | 176 J/K/mol and 176.3 J/K/mol | –
[3], 277.8 K | 176.2 J/K/mol and 176.6 J/K/mol | –
[3], 278.2 K | 177 J/K/mol and 176.6 J/K/mol | –
[3], 278.5 K | 177.5 J/K/mol and 177.1 J/K/mol | –
[3], 278.9 K | 177.9 J/K/mol and 177.6 J/K/mol | –
[3], 279.3 K | 178.4 J/K/mol and 178.1 J/K/mol | –
[3], 279.6 K | 179 J/K/mol and 178.7 J/K/mol | –
[3], 280 K | 179.6 J/K/mol and 179.5 J/K/mol | –
[3], 280.4 K | 180.4 J/K/mol and 180.3 J/K/mol | –
[3], 280.7 K | 181.1 J/K/mol | –
[3], 280.8 K | 181.2 J/K/mol | –
[3], 281.1 K | 181.9 J/K/mol and 182 J/K/mol | –
[3], 281.5 K | 182.8 J/K/mol and 182.9 J/K/mol | –
[3], 281.8 K | 183.7 J/K/mol | –
[3], 281.9 K | 183.8 J/K/mol | –
[3], 282.2 K | 184.7 J/K/mol and 184.8 J/K/mol | –
[3], 282.6 K | 185.7 J/K/mol and 185.8 J/K/mol | –
[3], 282.9 K | 186.7 J/K/mol and 186.6 J/K/mol | –
[3], 283.3 K | 187.9 J/K/mol and 187.6 J/K/mol | –
[3], 283.7 K | 188.9 J/K/mol and 188.4 J/K/mol | –
[3], 284 K | 190 J/K/mol and 189 J/K/mol | –
[3], 284.4 K | 190.9 J/K/mol and 189.8 J/K/mol | –
[3], 284.8 K | 191.7 J/K/mol and 190.3 J/K/mol | –
[3], 285.1 K | 192.3 J/K/mol and 190.7 J/K/mol | –
[3], 285.5 K | 192.8 J/K/mol and 191 J/K/mol | –
[3], 285.9 K | 193.1 J/K/mol and 191.4 J/K/mol | –
[3], 286.2 K | 193.2 J/K/mol and 191.6 J/K/mol | –
[3], 286.6 K | 193.3 J/K/mol and 191.7 J/K/mol | –
[3], 286.9 K | 193.2 J/K/mol and 192 J/K/mol | –
[3], 287.3 K | 193.3 J/K/mol and 192.4 J/K/mol | –
[3], 287.7 K | 193.2 J/K/mol and 192.6 J/K/mol | –
[3], 288 K | 193 J/K/mol | –
[3], 288.4 K | 192.8 J/K/mol and 193.1 J/K/mol | –
[3], 288.8 K | 192.4 J/K/mol and 193.1 J/K/mol | –
[3], 289.1 K | 192.1 J/K/mol and 193.1 J/K/mol | –
[3], 289.5 K | 191.7 J/K/mol and 193.1 J/K/mol | –
[3], 289.8 K | 191.4 J/K/mol and 193.1 J/K/mol | –
[3], 290.2 K | 191.3 J/K/mol and 193 J/K/mol | –
[3], 290.6 K | 191.3 J/K/mol and 192.9 J/K/mol | –
[3], 290.9 K | 191.6 J/K/mol and 192.9 J/K/mol | –
[3], 291.3 K | 191.9 J/K/mol and 192.9 J/K/mol | –
[3], 291.7 K | 192.2 J/K/mol and 193.1 J/K/mol | –
[3], 292 K | 192.7 J/K/mol and 193.5 J/K/mol | –
[3], 292.4 K | 193.3 J/K/mol and 193.6 J/K/mol | –
[3], 292.8 K | 193.8 J/K/mol and 194.2 J/K/mol | –
[3], 293.1 K | 194.5 J/K/mol and 194.6 J/K/mol | –
[3], 293.5 K | 195.3 J/K/mol and 195.4 J/K/mol | –
[3], 293.8 K | 196.1 J/K/mol | –
[3], 294.2 K | 196.8 J/K/mol and 196.7 J/K/mol | –
[3], 294.6 K | 197.8 J/K/mol and 197.4 J/K/mol | –
[3], 294.9 K | 198.7 J/K/mol and 198.1 J/K/mol | –
[3], 295.3 K | 199.6 J/K/mol and 198.9 J/K/mol | –
[3], 295.7 K | 200.6 J/K/mol and 199.8 J/K/mol | –
[3], 296 K | 201.6 J/K/mol and 200.6 J/K/mol | –
[3], 296.4 K | 202.5 J/K/mol and 201.7 J/K/mol | –
[3], 296.8 K | 203.6 J/K/mol and 202.9 J/K/mol | –

Details | Normal melting temperature [°C]
[1], Crystal, DTA | 34

Details | Molar enthalpy of transition or fusion [kcal/mol]
[2] | 4.16
